# Reference: patent US5637582A, “Peripheral circulation improving agent” (priority 1992, dated 1997)
# Counter-ions that a name gives are not always drawn.
# How the values were obtained:
# femoral artery [1] = assay: Increase in femoral arterial blood flow in anesthetized dogs, cumulative i.v. dosing (Experimental Example 1); format: in vivo, dog; conditions: 60 min after administration
# Description: (§1) Adult dogs (one group consisting of a dog) were intravenously given the test compound under anesthesia and artificial respiration successively at intervals of 60 minutes so that the dose can be 10, 30, 100 and 300 μg/kg body weight, and the blood flow of femoral artery was measured with a time course. […] An increase in the femoral arterial blood flow was calculated by subtracting the blood flow before the administration of the first dose of test compound as the standard value (the base line) from that 60 minutes after each administration.
# femoral artery [2] = assay: Maximum increase in femoral arterial blood flow in anesthetized dogs, cumulative i.v. dosing (Experimental Example 3); format: in vivo, dog; conditions: maximum during 60 min
# Description: as §1, with “consisting of 5 dogs) were intravenously” for “consisting of a dog) were intravenously”, “10, 30, 100, 300 and 1000” for “10, 30, 100 and 300”, “300 and 1000 μg/kg body” for “100 and 300 μg/kg body”, “from that of maximum during an interval of 60 minutes” for “from that 60 minutes”
# femoral artery [3] = assay: Femoral arterial blood flow, hind leg cooling model of Raynaud's disease (Experimental Example 5); format: in vivo, male SD rat
# Description: (Lower limbs peripheral circulation disorder model due to hind leg cooling: Model of Raynaud's disease)
# A catheter was inserted into left common carotid artery of a male SD rat (one group consisting of 5 rats) under anesthesia, and the arterial blood pressure was measured with a standard pressure transducer (manufactured by Nihon Koden. TP-200T, trade name) through a catheter attached to the artery. After isolating the left femoral artery from the peripheral connective tissue, a flow probe (HDP 10-20R: F 1.0 mm) of a Doppler blood flow meter (manufactured by Crystal Biotec Co., PD20, trade name) was attached thereto and was connected to the Doppler blood flow meter to measure the artery blood flow. After the operation, at the time that the state became stable, the left hind leg was exposed to a perfused solution at 10° C. to decrease the femoral arterial blood flow. After 30 minutes, 1 ml/kg of a 0.9% NaCl solution or 300 μg/kg of the test compound A was intravenously administered and the state was observed. In the case of Beraprost Na, continuous injection in an amount of […] was carried out after 30 minutes from cooling. The compounds to be used were each dissolved in a 0.9% NaCl solution.
# The present model is disclosed, for example, in Nishio et al, "Effect of Beraprost Sodium on Peripheral Circulatory Disturbances Induced by Various Stimuli", Arzneim.-Forsch./Drug Res., 39 (II), Nr. 10 (1989), pp. 1229-1234. Note particularly the section "2.4. Sphygmometry in rat hind paw", at page 1230.
# arterial blood pressure [4] = system: arterial blood pressure; design: species or system male SD rat; conditions: rat, in vivo
# Description: (Lower limbs peripheral circulation disorder model due to hind leg cooling: Model of Raynaud's disease) […] TP-200T, trade name) through a catheter attached to the artery. […] After the operation, at the time that the state became stable, the left hind leg was exposed to a perfused solution at 10° C. to decrease the femoral arterial blood flow. […] In the case of Beraprost Na, continuous injection in an amount of […] was carried out after 30 minutes from cooling. […] The present model is disclosed, for example, in Nishio et al, "Effect of Beraprost Sodium on Peripheral Circulatory Disturbances Induced by Various Stimuli", Arzneim.-Forsch./Drug Res., 39 (II), Nr. 10 (1989), pp. 1229-1234. Note particularly the section "2.4. Sphygmometry in rat hind paw", at page 1230.
# hind leg edema = assay: Hind leg frostbite model: model of Raynaud's disease (Experimental Example 7); format: in vivo, male SD rat; conditions: for % Inhibition of edema / Edema: 30 mg/kg, orally twice a day for 6 days; for edema inhibition activity: rat hind leg frostbite model, in words
# Description: (Hind leg frostbite model: Model of Raynaud's disease)
# Left hind leg of male SD rat (one group: 3 to 5 rats) was dipped in dry ice-ethanol for 2 seconds, and after 30 minutes, 30 mg/kg of a test compound dissolved in pure water was administered to the rat and then orally administered twice a day for 6 days continuously. At the final day of the experiment, volumes of both hind legs (below ankle joint) of the rat were measured by a water substitution method and an edema ratio was calculated from the following equation. Also, an inhibition ratio of the test compound administered group was obtained by comparing the edema ratio of the group in which the test compound was not administered. [formula]
# The present model is disclosed, for example, in Hayashi et al, "Pharmacological Studies on Niceritrol (10), The Effects on Experimental Models of Peripherally Circulatory Insufficiency", Applied Pharmacology, 24 (6): 859-864 (1982), noting particularly the section "2. Effect on an experimental frostbite model" on page 860.
# femoral artery [5] = assay: Change of femoral arterial blood flow in anesthetized dogs (Experimental Example 4); format: in vivo, dog; conditions: 100 μg/kg i.v.
# Description: (§2) Each test compound was intravenously administered to adult dogs (one group consisting of 2 or 4 dogs) under anesthesia and artificial respiration at a dose of 100 μg/kg body weight. Femoral arterial blood flow, vertebral arterial blood flow and arterial blood pressure were measured 1, 3, 5, 10, 20 and 30 minutes after the administration. The femoral arterial blood flow and vertebral arterial blood flow were measured with an electromagnetic blood flowmeter (manufactured by Nihon Koden, MFV-2100, trade name) through a flow probe attached to the femoral artery or vertebral artery. The arterial blood pressure was measured with a pressure transducer (manufactured by Millar, MICRO-TIP, Model SPC-350) through a catheter attached to the brachial artery.
# (§3) Changes of the femoral arterial blood flow, vertebral arterial blood flow and arterial blood pressure were estimated by comparing the values measured before and after the administration of the test compound.
# arterial blood pressure [6] = assay: Change of arterial blood pressure in anesthetized dogs (Experimental Example 4); conditions: 100 μg/kg i.v.
# Description: as §2, §3
# vertebral artery = assay: Change of vertebral arterial blood flow in anesthetized dogs (Experimental Example 4); conditions: 100 μg/kg i.v.
# Description: as §2, §3
smiles,measurement,setting,value
"CC(=O)O[C@@H]1C(=O)N(CCN(C)C)c2ccc(CO)cc2S[C@@H]1c1ccc(C)cc1 [Compound E, (-)-cis-2-(4-methylphenyl)-3-acetoxy-5-[2-(dimethylamino)ethyl]-8-hydroxymethyl-2,3-dihydro-1,5-benzothiazepin-4(5H)-one oxalate]",Increase in femoral arterial blood flow,femoral artery [1]; 30 μg/kg i.v.,15 mL/min
same,Increase in femoral arterial blood flow,femoral artery [1]; 100 μg/kg i.v.,37 mL/min
same,Increase in femoral arterial blood flow,femoral artery [1]; 300 μg/kg i.v.,36 mL/min
same,Increase in femoral arterial blood flow,femoral artery [2]; 30 μg/kg i.v.,15.6 mL/min
same,Increase in femoral arterial blood flow,femoral artery [2]; 100 μg/kg i.v.,55.6 mL/min
same,Increase in femoral arterial blood flow,femoral artery [2]; 300 μg/kg i.v.,69.2 mL/min
same,Increase in femoral arterial blood flow,femoral artery [2]; 1000 μg/kg i.v.,68.6 mL/min
"CC#CCC(C)[C@H](O)/C=C/[C@@H]1[C@H]2c3cccc(CCCC(=O)O)c3O[C@H]2C[C@H]1O (stereo partly drawn) [Compound J, Beraprost Na, reference compound]",Femoral Arterial Blood Flow change,femoral artery [3]; 0 min (before cooling and administration; 30 min = 0),1.116 Δ ml/min
same,Femoral Arterial Blood Flow change,"femoral artery [3]; 40 min, given at 30 min: A 300 μg/kg i.v., J 0.3 μg/kg/ml continuous injection",0.252 Δ ml/min
same,Femoral Arterial Blood Flow change,"femoral artery [3]; 50 min, given at 30 min: A 300 μg/kg i.v., J 0.3 μg/kg/ml continuous injection",0.304 Δ ml/min
same,Femoral Arterial Blood Flow change,"femoral artery [3]; 60 min, given at 30 min: A 300 μg/kg i.v., J 0.3 μg/kg/ml continuous injection",0.368 Δ ml/min
same,Femoral Arterial Blood Flow change,"femoral artery [3]; 70 min, given at 30 min: A 300 μg/kg i.v., J 0.3 μg/kg/ml continuous injection",0.436 Δ ml/min
same,Femoral Arterial Blood Flow change,"femoral artery [3]; 80 min, given at 30 min: A 300 μg/kg i.v., J 0.3 μg/kg/ml continuous injection",0.372 Δ ml/min
same,Femoral Arterial Blood Flow change,"femoral artery [3]; 90 min, given at 30 min: A 300 μg/kg i.v., J 0.3 μg/kg/ml continuous injection",0.344 Δ ml/min
same,Mean Arterial Pressure change,arterial blood pressure [4],1.20 Δ mmHg
"Clc1ccccc1CN1CCc2sccc2C1 [Compound K, ticlopidine]",% Inhibition of edema,hind leg edema,-9%
same,Edema,hind leg edema,48 ± 2%
same,edema inhibition activity,hind leg edema,did not show any edema inhibition activity
"CC(=O)Oc1ccccc1C(=O)O [Compound L, acetyl salicylic acid]",% Inhibition of edema,hind leg edema,-25%
same,Edema,hind leg edema,55 ± 8%
same,edema inhibition activity,hind leg edema,did not show any edema inhibition activity
COc1ccc([C@H]2Sc3ccccc3N(CCN(C)C)C(=O)[C@H]2OC(C)=O)cc1 [F],Increase in femoral arterial blood flow,femoral artery [1]; 10 μg/kg i.v.,11 mL/min
same,Increase in femoral arterial blood flow,femoral artery [1]; 30 μg/kg i.v.,21 mL/min
same,Increase in femoral arterial blood flow,femoral artery [1]; 100 μg/kg i.v.,27 mL/min
same,Increase in femoral arterial blood flow,femoral artery [1]; 300 μg/kg i.v.,37 mL/min
same,Increase in femoral arterial blood flow,femoral artery [2]; 10 μg/kg i.v.,10.7 mL/min
same,Increase in femoral arterial blood flow,femoral artery [2]; 30 μg/kg i.v.,21.0 mL/min
same,Increase in femoral arterial blood flow,femoral artery [2]; 100 μg/kg i.v.,27.3 mL/min
same,Increase in femoral arterial blood flow,femoral artery [2]; 300 μg/kg i.v.,37.0 mL/min
same,Femoral Arterial Blood Flow change,femoral artery [5]; 3 min,36.0 Δ ml/min
same,Femoral Arterial Blood Flow change,femoral artery [5]; 5 min,48.0 Δ ml/min
same,Femoral Arterial Blood Flow change,femoral artery [5]; 10 min,63.5 Δ ml/min
same,Femoral Arterial Blood Flow change,femoral artery [5]; 20 min,64.5 Δ ml/min
same,Femoral Arterial Blood Flow change,femoral artery [5]; 30 min,54.5 Δ ml/min
same,AUC60 of the femoral arterial blood flow,femoral artery [5]; 60 minutes after administration,2977.0 mL
same,femoral arterial blood flow increasing activity,"femoral artery [5]; even after 30 minutes, in words",excellent femoral arterial blood flow increasing activity
same,Arterial Blood Pressure change (side effects),arterial blood pressure [6]; 1 min,-1.5 ΔmmHg
same,Arterial Blood Pressure change (side effects),arterial blood pressure [6]; 3 min,-0.5 ΔmmHg
same,Arterial Blood Pressure change (side effects),arterial blood pressure [6]; 5 min,1.0 ΔmmHg
same,Arterial Blood Pressure change (side effects),arterial blood pressure [6]; 10 min,1.5 ΔmmHg
same,Arterial Blood Pressure change (side effects),arterial blood pressure [6]; 20 min,1.5 ΔmmHg
same,Arterial Blood Pressure change (side effects),arterial blood pressure [6]; 30 min,2.5 ΔmmHg
same,Vertebral Arterial Blood Flow change (side effects),vertebral artery; 1 min,-0.5 Δ ml/min
same,Vertebral Arterial Blood Flow change (side effects),vertebral artery; 3 min,-1.0 Δ ml/min
same,Vertebral Arterial Blood Flow change (side effects),vertebral artery; 5 min,-1.0 Δ ml/min
same,Vertebral Arterial Blood Flow change (side effects),vertebral artery; 10 min,0.0 Δ ml/min
same,Vertebral Arterial Blood Flow change (side effects),vertebral artery; 20 min,0.0 Δ ml/min
same,Vertebral Arterial Blood Flow change (side effects),vertebral artery; 30 min,0.5 Δ ml/min
